Measurements: BindingDB's records for PubMed 3012067 (Johns Hopkins University, 1986)
Several values for one entry are separate records, joined by “and”; a condition that tells them apart may be missing. Identical values can stand only once.

Each compound was assayed against Voltage-dependent L-type calcium channel subunit alpha-1C (Rattus norvegicus, UniProt P22002).
Chain of Voltage-dependent L-type calcium channel subunit alpha-1C (P22002 whole entry): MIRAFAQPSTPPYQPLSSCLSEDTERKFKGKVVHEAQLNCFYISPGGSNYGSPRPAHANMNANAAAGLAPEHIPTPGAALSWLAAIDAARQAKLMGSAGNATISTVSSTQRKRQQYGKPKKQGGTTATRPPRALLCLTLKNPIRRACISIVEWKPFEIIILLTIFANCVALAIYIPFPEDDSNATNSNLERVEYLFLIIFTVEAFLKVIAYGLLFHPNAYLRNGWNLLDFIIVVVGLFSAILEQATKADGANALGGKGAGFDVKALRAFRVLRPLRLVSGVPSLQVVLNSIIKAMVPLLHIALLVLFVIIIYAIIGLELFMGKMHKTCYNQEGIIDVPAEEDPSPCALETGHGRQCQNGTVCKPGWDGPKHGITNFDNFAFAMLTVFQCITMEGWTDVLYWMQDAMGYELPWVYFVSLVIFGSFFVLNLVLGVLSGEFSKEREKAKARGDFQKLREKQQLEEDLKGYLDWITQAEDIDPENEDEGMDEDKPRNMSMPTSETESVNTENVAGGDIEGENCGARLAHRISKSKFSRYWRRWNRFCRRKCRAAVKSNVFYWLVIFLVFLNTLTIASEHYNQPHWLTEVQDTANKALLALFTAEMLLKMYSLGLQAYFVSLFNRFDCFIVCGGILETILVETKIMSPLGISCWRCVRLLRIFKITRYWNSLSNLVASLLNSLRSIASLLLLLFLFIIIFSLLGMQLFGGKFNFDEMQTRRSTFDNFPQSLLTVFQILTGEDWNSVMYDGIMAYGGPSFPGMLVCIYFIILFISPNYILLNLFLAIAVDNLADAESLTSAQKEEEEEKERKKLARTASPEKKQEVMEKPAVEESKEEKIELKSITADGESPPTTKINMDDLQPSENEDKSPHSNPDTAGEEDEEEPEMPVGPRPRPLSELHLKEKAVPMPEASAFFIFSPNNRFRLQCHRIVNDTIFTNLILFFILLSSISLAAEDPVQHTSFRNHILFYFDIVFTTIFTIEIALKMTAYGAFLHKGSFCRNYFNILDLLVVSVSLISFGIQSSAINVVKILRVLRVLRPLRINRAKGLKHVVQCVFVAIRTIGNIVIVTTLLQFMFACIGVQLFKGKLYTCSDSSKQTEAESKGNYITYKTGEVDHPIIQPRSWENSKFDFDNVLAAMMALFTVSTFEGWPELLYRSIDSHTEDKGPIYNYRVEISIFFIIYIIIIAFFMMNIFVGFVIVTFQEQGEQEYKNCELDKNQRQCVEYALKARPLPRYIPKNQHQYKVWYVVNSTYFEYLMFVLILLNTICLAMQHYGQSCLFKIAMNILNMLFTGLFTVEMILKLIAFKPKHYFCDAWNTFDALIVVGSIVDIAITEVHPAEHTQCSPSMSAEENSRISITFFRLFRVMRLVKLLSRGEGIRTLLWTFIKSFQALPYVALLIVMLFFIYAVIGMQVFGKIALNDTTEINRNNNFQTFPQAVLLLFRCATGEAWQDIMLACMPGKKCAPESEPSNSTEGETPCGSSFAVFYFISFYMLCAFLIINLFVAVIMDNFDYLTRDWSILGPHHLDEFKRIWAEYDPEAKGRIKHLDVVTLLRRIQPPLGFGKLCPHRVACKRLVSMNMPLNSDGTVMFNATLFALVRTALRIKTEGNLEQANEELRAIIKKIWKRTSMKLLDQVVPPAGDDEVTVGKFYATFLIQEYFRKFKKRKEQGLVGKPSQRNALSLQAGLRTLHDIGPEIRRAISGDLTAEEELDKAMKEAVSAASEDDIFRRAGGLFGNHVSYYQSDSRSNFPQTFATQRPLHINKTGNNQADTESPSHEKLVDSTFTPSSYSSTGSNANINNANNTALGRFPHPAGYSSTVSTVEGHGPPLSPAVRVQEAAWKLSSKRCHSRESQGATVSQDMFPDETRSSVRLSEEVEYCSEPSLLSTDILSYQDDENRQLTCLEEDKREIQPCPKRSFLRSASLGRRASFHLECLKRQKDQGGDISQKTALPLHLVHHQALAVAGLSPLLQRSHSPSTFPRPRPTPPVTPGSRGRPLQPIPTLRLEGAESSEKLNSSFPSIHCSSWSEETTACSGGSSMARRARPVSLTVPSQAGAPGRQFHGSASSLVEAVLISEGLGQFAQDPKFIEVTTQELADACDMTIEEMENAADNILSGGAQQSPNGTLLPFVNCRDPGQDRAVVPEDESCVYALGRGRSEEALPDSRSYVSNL

Row | Structure (SMILES) | Ki
1 | Cc1cccc(C)c1NC(=O)CN1CCN(CCCC(c2ccc(F)cc2)c2ccc(F)cc2)CC1 | 305 nM and 188 nM
2 | CN(C)C(=O)C(CCN1CCC(O)(c2ccc(Cl)cc2)CC1)(c1ccccc1)c1ccccc1 | 205 nM and 127 nM
3 | COc1ccc(CCN(C)CCCC2(c3ccc(OC)c(OC)c3)S(=O)(=O)CCCS2(=O)=O)cc1OC | 1440 nM and 416 nM
4 | CC(Cc1ccccc1)NCCC(c1ccccc1)c1ccccc1 (centres undefined) | 384 nM and 320 nM
5 | CC(C)COC[C@H](CN(Cc1ccccc1)c1ccccc1)N1CCCC1 | 547 nM and 241 nM
6 | COC(=O)C1=C(C)N=C(C)C([N+](=O)[O-])C1c1ccccc1C(F)(F)F (centres undefined) [Bay k 8644] | 1110 nM
7 | COc1ccc(CCN(C)CCCC(C#N)(c2cc(OC)c(OC)c(OC)c2)C(C)C)cc1OC (centres undefined) [GALLOPAMIL] | 21.4 nM and 22.5 nM
8 | CCOP(=O)(Cc1ccc(-c2nc3ccccc3s2)cc1)OCC [NSC_53421] | 1690 nM and 442 nM
9 | CCOC(=O)C1=C(C)N=C(C)C(C(=O)OCC)C1c1ccccc1C(F)(F)F (centres undefined) [NSC_168089] | 268 nM
